Results from PubChem BioAssay (NCI).
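Assay format: 96-well plates, 48-hour exposure. TGI marks complete inhibition of growth.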

Key:
Test in all cases: NCI anticancer screen, dose series, 48 h
NCI-H522 lung = test system: NCI-H522 lung
K-562 leukemia = test system: K-562 leukemia
RPMI-8226 leukemia = test system: RPMI-8226 leukemia
M14 melanoma = test system: M14 melanoma
SNB-19 CNS = test system: SNB-19 CNS
MDA-MB-435 = test system: MDA-MB-435
OVCAR-8 ovarian = test system: OVCAR-8 ovarian
ACHN renal = test system: ACHN renal
KM12 colon = test system: KM12 colon
SF-295 CNS = test system: SF-295 CNS
UO-31 renal = test system: UO-31 renal
COLO 205 colon = test system: COLO 205 colon
PC-3 prostate = test system: PC-3 prostate
MCF7 breast = test system: MCF7 breast
NCI-H23 lung = test system: NCI-H23 lung
IGROV1 ovarian = test system: IGROV1 ovarian
UACC-257 melanoma = test system: UACC-257 melanoma
UACC-62 melanoma = test system: UACC-62 melanoma
HCT-116 colon = test system: HCT-116 colon
HOP-62 NSCLC = test system: HOP-62 NSCLC
HOP-92 NSCLC = test system: HOP-92 NSCLC
786-0 renal = test system: 786-0 renal
HCC-2998 colon = test system: HCC-2998 colon
NCI-H226 lung = test system: NCI-H226 lung
SF-268 CNS = test system: SF-268 CNS
T-47D breast = test system: T-47D breast
TK-10 renal = test system: TK-10 renal
OVCAR-4 ovarian = test system: OVCAR-4 ovarian
U251 CNS = test system: U251 CNS
SK-OV-3 ovarian = test system: SK-OV-3 ovarian
SNB-75 CNS = test system: SNB-75 CNS
EKVX NSCLC = test system: EKVX NSCLC
MDA-MB-231 breast = test system: MDA-MB-231 breast
LOX IMVI melanoma = test system: LOX IMVI melanoma
SK-MEL-5 melanoma = test system: SK-MEL-5 melanoma
OVCAR-5 ovarian = test system: OVCAR-5 ovarian
NCI-H460 lung = test system: NCI-H460 lung
CAKI-1 renal = test system: CAKI-1 renal
MALME-3M melanoma = test system: MALME-3M melanoma
A549 NSCLC = test system: A549 NSCLC
NCI/ADR-RES ovarian = test system: NCI/ADR-RES ovarian
MDA-N = test system: MDA-N
A498 renal = test system: A498 renal
DU-145 prostate = test system: DU-145 prostate
HT29 colon = test system: HT29 colon
SK-MEL-28 melanoma = test system: SK-MEL-28 melanoma
SN12C renal = test system: SN12C renal
CCRF-CEM leukemia = test system: CCRF-CEM leukemia
HS 578T breast = test system: HS 578T breast
HL-60(TB) leukemia = test system: HL-60(TB) leukemia
MOLT-4 leukemia = test system: MOLT-4 leukemia
RXF 393 renal = test system: RXF 393 renal
HCT-15 colon = test system: HCT-15 colon
SR leukemia = test system: SR leukemia
SW-620 colon = test system: SW-620 colon
BT-549 breast = test system: BT-549 breast
OVCAR-3 ovarian = test system: OVCAR-3 ovarian
SF-539 CNS = test system: SF-539 CNS

Measured: TGI

O=c1[nH]c(=O)c2c3n(cc2[nH]1)CCCCC3
> 100 µM: NCI-H522 lung | K-562 leukemia | RPMI-8226 leukemia | M14 melanoma | SNB-19 CNS | MDA-MB-435 | OVCAR-8 ovarian | ACHN renal | KM12 colon | SF-295 CNS | UO-31 renal | COLO 205 colon | PC-3 prostate | MCF7 breast | NCI-H23 lung | IGROV1 ovarian | UACC-257 melanoma | UACC-62 melanoma | HCT-116 colon | HOP-62 NSCLC | HOP-92 NSCLC | 786-0 renal | HCC-2998 colon | NCI-H226 lung | SF-268 CNS | T-47D breast | TK-10 renal | OVCAR-4 ovarian | U251 CNS | SK-OV-3 ovarian | SNB-75 CNS | EKVX NSCLC | MDA-MB-231 breast | LOX IMVI melanoma | SK-MEL-5 melanoma | OVCAR-5 ovarian | NCI-H460 lung | CAKI-1 renal | MALME-3M melanoma | A549 NSCLC | NCI/ADR-RES ovarian | MDA-N | A498 renal | DU-145 prostate | HT29 colon | SK-MEL-28 melanoma | SN12C renal | CCRF-CEM leukemia | HS 578T breast | HL-60(TB) leukemia | MOLT-4 leukemia | RXF 393 renal | HCT-15 colon | SR leukemia

CCOC(=O)CCCSCCCC(=O)CCCSCCCC(=O)OCC
> 100 µM: SW-620 colon | NCI-H522 lung | K-562 leukemia | M14 melanoma | BT-549 breast | SNB-19 CNS | MDA-MB-435 | OVCAR-8 ovarian | KM12 colon | SF-295 CNS | UO-31 renal | COLO 205 colon | PC-3 prostate | MCF7 breast | NCI-H23 lung | IGROV1 ovarian | UACC-257 melanoma | OVCAR-3 ovarian | UACC-62 melanoma | HCT-116 colon | HOP-62 NSCLC | HOP-92 NSCLC | 786-0 renal | HCC-2998 colon | SF-268 CNS | T-47D breast | TK-10 renal | OVCAR-4 ovarian | U251 CNS | SK-OV-3 ovarian | SNB-75 CNS | EKVX NSCLC | MDA-MB-231 breast | LOX IMVI melanoma | SK-MEL-5 melanoma | OVCAR-5 ovarian | NCI-H460 lung | SF-539 CNS | A549 NSCLC | NCI/ADR-RES ovarian | MDA-N | DU-145 prostate | HT29 colon | SK-MEL-28 melanoma | SN12C renal | CCRF-CEM leukemia | HL-60(TB) leukemia | MOLT-4 leukemia | HCT-15 colon | SR leukemia
